From US9938258B2 (Karyopharm Therapeutics Inc., priority 2012, dated 2018)
Counter-ions that a name gives are not always drawn. Like-named read-outs stand apart in the source and are kept apart here.

Columns and labels:
[1] = system: Hep G2 cells; assay: MTT cell proliferation assay, Hep G2; type: cell-based; conditions: Homo sapiens, HepG2, incubation approximately 64-72 hours
Method: (§1) The MTT cell proliferation assay was used to study the cytotoxic properties of the compounds. The assay was performed according to the method described by Roche Molecular Biochemicals, with minor modifications. The assay is based on the cleavage of the tetrazolium salt, MTT, in the presence of an electron-coupling reagent. The water-insoluble formazan salt produced must be solubilized in an additional step. Cells grown in a 96-well tissue culture plate were incubated with the MTT solution for approximately 4 hours. After this incubation period, a water-insoluble formazan dye formed. After solubilization, the formazan dye was quantitated using a scanning multi-well spectrophotometer (ELISA reader). […] The cells were seeded at 5,000-10,000 cells in each well of 96-well plate in 100 μL of fresh culture medium and were allowed to attach overnight. The stock solutions of the compounds were diluted in 100 μL cell culture medium to obtain eight concentrations of each test compound, ranging from 1 nM to 30 μM. […] All optical densities were measured at 490 nm using a Vmax Kinetic Microplate Reader (Molecular Devices). In most cases, the assay was performed in duplicate and the results were presented as a mean percent inhibition to the negative control±SE. The following formula was used to calculate the percent of inhibition: Inhibition (%)=(1-(ODo/OD)) ×100.
The M24 cell line is derived from human melanoma cells. The U2OS cell line is a human osteosarcoma cell line expressing wild type p53 and Rb, but lacking p16. The MM1S cell line is a multiple myeloma cell line; the parent cell line, MM.1, was established from peripheral blood of a multiple myeloma patient who had become resistant to steroid-based therapy. The RPMI8226 cell line is derived from human B lymphocyte cells. NHDF cells are normal human dermal fibroblast cells. The MRC-5 cell line is derived from normal lung tissue of a fetus. The LN18 cell line is a human malignant glioma cell line. The DU-145 cell line is a human prostate cancer cell line. A549 cells are human adenocarcinomic human alveolar basal epithelial cells. The MOLT4 cell line is a human acute lymphoblastic leukemia cell line. The THP1 cell line is a human leukemic monocytic cell line derived from peripheral blood. The OCIAML5 cell line is a human acute myeloid leukemia cell line. The MDA-MB-231 cell line is a human breast adenocarcinoma cell line. The MDA-MB-468 cell line is a human breast carcinoma cell line. HL-60 cells are human promyelocytic leukemia cells. Hep G2 cells are human hepatocellular carcinoma cells. HEP 3B cells are human hepatocellular carcinoma cells. The DLD-1 cell line is a colorectal adenocarcinoma cell line. The HCT-15 cell line is a human colon carcinoma cell line. The Colo-205 cell line is derived from a human adenocarcinoma of the colon. […]

[2] = system: MS751 cells; assay: MTT cell proliferation assay, MS751; type: cell-based, human; conditions: Homo sapiens
Method in brief: (§2)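 Absorbance at 490 nm of solubilized formazan, produced during roughly 4 h MTT incubation, gave percent inhibition relative to negative control. Compounds spanned eight concentrations between 1 nM and 30 μM on cells plated overnight at 5,000-10,000 per well.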

[3] = system: PAK4 interactors and downstream proteins; assay: Immunoblots of PAK4 interactors and downstream proteins in U2OS cells; type: cell-based, human; conditions: 72 hours
Method: Immunoblots were used to measure the effects of exemplary compounds on protein steady-state levels and phophorylation of PAK4 interactor and downstream proteins. Specifically, U2OS (osteosarcoma) cells were split and plated on day 1. After overnight attachment to the tissue culture plate, cells were treated with either DMSO (0), 37 nM, 111 nM, 333 nM, 1 μM, or 3 μM Compound 246 for 72 hours. Cells were collected, washed and lysed in RIPA buffer. After obtaining the protein concentration by BCA assay, lysates were boiled in loading buffer and run on SDS-PAGE. The gels were transferred to nitrocellulose membranes and blotted with antibodies raised against phosphor-PAK4, PAK4, phophos-beta-catenin, beta-catenin, GEF-H1, phospho-Akt, Akt, phospho-ERK1/2, ERK1/2, phospho-cofilin, cofilin, phospho-histone H3, histone H3, cyclin D1, Mcl-1, Bcl-2, p21, survivin, caspase 8, caspase 3, PARP, and beta-actin (loading control).
In another experiment, U2OS (osteosarcoma) cells were split and plated on day 1. After overnight attachment to the tissue culture plate, cells were treated with DMSO (Ct), 0.5 μM, or 5 μM of Compound 124, 369, 226, 246, or 907 for 72 hours. Cells were collected, washed and lysed in RIPA buffer. After obtaining the protein concentration by BCA assay, lysates were boiled in loading buffer and run on SDS-PAGE. The gels were transferred to nitrocellulose membranes and blotted with antibodies raised against phophos-beta-catenin, cyclin D1, PAK4, phospho-cofilin, and beta-actin (loading control).

[4] = system: Z138 cells; assay: MTT cell proliferation assay, Z138; type: cell-based; conditions: Homo sapiens
Method in brief: as §2

[5] = system: HEP 3B cells; assay: MTT cell proliferation assay, HEP 3B; type: cell-based; conditions: Homo sapiens, Hep3B, incubation approximately 64-72 hours
Method: as §1
(§3) The M24 cell line is derived from human melanoma cells. The U2OS cell line is a human osteosarcoma cell line expressing wild type p53 and Rb, but lacking p16. The MM1S cell line is a multiple myeloma cell line; the parent cell line, MM.1, was established from peripheral blood of a multiple myeloma patient who had become resistant to steroid-based therapy. The RPMI8226 cell line is derived from human B lymphocyte cells. NHDF cells are normal human dermal fibroblast cells. The MRC-5 cell line is derived from normal lung tissue of a fetus. The LN18 cell line is a human malignant glioma cell line. The DU-145 cell line is a human prostate cancer cell line. A549 cells are human adenocarcinomic human alveolar basal epithelial cells. […]

[6] = system: 3T3 cells; assay: MTT cell proliferation assay, 3T3; type: cell-based, mouse; conditions: Mus musculus
Method in brief: as §2

[7] = system: UCH-2 cell line; assay: MTT cell proliferation assay, UCH-2; type: cell-based; conditions: UCH2, incubation approximately 64-72 hours
Method: as §1, with “×100. […]” for “×100.”

[8] = system: SNU-182 cell line; assay: MTT cell proliferation assay, SNU-182; type: cell-based; conditions: Homo sapiens, incubation approximately 64-72 hours
Method: as §1, with “×100. […]” for “×100.”

[9] = system: M24 cell line; assay: MTT cell proliferation assay, M24; type: cell-based; conditions: Homo sapiens, incubation approximately 64-72 hours
Method: as §1, with “×100. […]” for “×100.”

[10] = system: RPMI8226 cell line; assay: MTT cell proliferation assay, RPMI8226; type: cell-based; conditions: Homo sapiens, RPMI-8226, incubation approximately 64-72 hours
Method: as §1, with “×100. […]” for “×100.”

[11] = system: HL-60 cells; assay: MTT cell proliferation assay, HL-60; type: cell-based; conditions: Homo sapiens, incubation approximately 64-72 hours
Method: as §1, with “×100. […]” for “×100.”

[12] = system: NHDF cells; assay: MTT cell proliferation assay, NHDF; type: cell-based; conditions: Homo sapiens, incubation approximately 64-72 hours
Method: as §1, with “×100. […]” for “×100.”

[13] = system: U2OS cell line; assay: MTT cell proliferation assay, U2OS; type: cell-based; conditions: Homo sapiens, incubation approximately 64-72 hours
Method: as §1, with “×100. […]” for “×100.”

[14] = system: MM1S cell line; assay: MTT cell proliferation assay, MM1S; type: cell-based; conditions: Homo sapiens, MM1.S, incubation approximately 64-72 hours
Method: as §1, §3

**Q.** `Nc1ccc(/C=C/C(=O)NCC2Cc3cc(-c4ccc(C(=O)N5CC(F)(F)C5)cc4)cc(Cl)c3O2)cn1` (stereo not shown) [Compound 226, (E)-3-(6-aminopyridin-3-yl)-N-((7-chloro-5-(4-(3,3-difluoroazetidine-1-carbonyl)phenyl)-2,3-dihydrobenzofuran-2-yl)methyl)acrylamide] was tested. Which IC50 [1] did it give?
**A.** < 100 nM

**Q.** And the IC50 ([2]; MS751, MS751 cells, approximately 64-72 hours incubation, read-out: MTT Assay IC50, MS751)?
**A.** < 100 nM

**Q.** And the PAK4 total protein ([3]; 0.5 μM or 5 μM)?
**A.** decrease

**Q.** What about the “phosphorylation of PAK4 signaling proteins beta-catenin and cofilin” value ([3]; 0.5 μM or 5 μM) of the same molecule?
**A.** decreases in phosphorylation

**Q.** What about the IC50 ([4]; Z-138, Z138 cells, approximately 64-72 hours incubation, read-out: MTT Assay IC50, Z138) of the same molecule?
**A.** < 100 nM

**Q.** What about the IC50 [5] of the same molecule?
**A.** < 100 nM

**Q.** And the IC50 ([6]; NIH3T3, 3T3 cells, approximately 64-72 hours incubation, read-out: MTT Assay IC50, 3T3)?
**A.** 5000 to 30000 nM

**Q.** And the IC50 [7]?
**A.** > 30000 nM

**Q.** What about the IC50 [8] of the same molecule?
**A.** < 100 nM

**Q.** For `Nc1ccc(/C=C/C(=O)NCC2Cc3cc(-c4ccc(C(=O)N5CCNCC5)cc4)cc(Cl)c3O2)cn1` (stereo not shown) [Compound 246, (E)-3-(6-aminopyridin-3-yl)-N-((7-chloro-5-(4-(piperazine-1-carbonyl)phenyl)-2,3-dihydrobenzofuran-2-yl)methyl)acrylamide dihydrochloride], which IC50 [1] is on record?
**A.** 100 to 5000 nM

**Q.** What about the IC50 [9] of the same molecule?
**A.** 100 to 5000 nM

**Q.** What about the IC50 ([2]; MS751, read-out: MTT Assay IC50, MS751) of the same molecule?
**A.** < 100 nM

**Q.** And the PAK4 total protein ([3]; 37 nM to 3 μM)?
**A.** decrease

**Q.** And the “cleavage of apoptosis markers caspase 3, caspase 8 and PARP” value ([3]; 37 nM to 3 μM)?
**A.** increases in cleavage

**Q.** What about the “phosphorylation or total level of PAK4 signaling proteins (Akt, ERK1/2, beta-catenin, cofilin, p21, cyclin D1)” value ([3]; 37 nM to 3 μM) of the same molecule?
**A.** decrease in phosphorylation or the total level

**Q.** And the PAK4 total protein ([3]; 0.5 μM or 5 μM)?
**A.** decrease

**Q.** What about the “phosphorylation of PAK4 signaling proteins beta-catenin and cofilin” value ([3]; 0.5 μM or 5 μM) of the same molecule?
**A.** decreases in phosphorylation

**Q.** What about the IC50 ([4]; Z-138, read-out: MTT Assay IC50, Z138) of the same molecule?
**A.** < 100 nM

**Q.** What about the IC50 [10] of the same molecule?
**A.** 100 to 5000 nM

**Q.** And the IC50 [5]?
**A.** < 100 nM

**Q.** And the IC50 ([6]; NIH3T3, read-out: MTT Assay IC50, 3T3)?
**A.** 100 to 5000 nM

**Q.** What about the IC50 [11] of the same molecule?
**A.** 100 to 5000 nM

**Q.** What about the IC50 [12] of the same molecule?
**A.** 100 to 5000 nM

**Q.** What about the IC50 [13] of the same molecule?
**A.** < 100 nM

**Q.** And the IC50 [14]?
**A.** < 100 nM
